From patent US10034886B2, “GLP-1 receptor modulators” (Celgene International II SÀRL, priority 2014, dated 2018)
Read-outs that look alike come from different tables or passages of the source.

Target: T1, GLP-1R (Homo sapiens, UniProt P43220)
T1 construct: host or cells: GLP-1R CRE-bla CHO-K1 cells
Assay: EC20 GLP-1(9-36) PAM cAMP assay: dose response of compound in the presence of fixed concentration of GLP-1(9-36)
Assay type: cell-based
Conditions: GLP-1R CRE-bla CHO-K1 cells, read-out: EC20 GLP-1(9-36) PAM EC50
Method in brief: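 GLP-1R CRE-bla CHO-K1 cells treated 30 min at 37 °C with 12-point compound dose response plus fixed EC20 GLP-1(9-36), with IBMX, in HBSS/HEPES/0.1% BSA pH 7.4. Total cAMP measured by luminescent detection against standard curve; EC50 and Emax from non-linear regression.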

[1] = dose response of compound in presence of fixed concentration of GLP-1(9-36)
[2] = compound dose response with fixed concentration of GLP-1(9-36)

T1 sequence (P43220 24-463): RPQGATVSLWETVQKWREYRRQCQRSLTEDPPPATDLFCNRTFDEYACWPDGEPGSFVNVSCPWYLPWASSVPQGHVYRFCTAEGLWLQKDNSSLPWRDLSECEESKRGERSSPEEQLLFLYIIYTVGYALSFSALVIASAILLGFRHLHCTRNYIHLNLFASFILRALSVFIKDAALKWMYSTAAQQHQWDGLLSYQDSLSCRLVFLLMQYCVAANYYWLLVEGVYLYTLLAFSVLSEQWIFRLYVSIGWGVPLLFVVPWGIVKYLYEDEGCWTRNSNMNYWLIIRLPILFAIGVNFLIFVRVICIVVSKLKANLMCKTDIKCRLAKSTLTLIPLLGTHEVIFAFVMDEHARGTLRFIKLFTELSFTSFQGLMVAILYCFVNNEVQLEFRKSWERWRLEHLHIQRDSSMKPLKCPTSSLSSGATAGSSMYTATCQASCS
T1 sequence (P01275 100-127 partner limits assumed): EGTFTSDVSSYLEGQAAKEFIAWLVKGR

SMILES | EC50 [1] [nM] | EC50 [2] [nM]
CC(C)CCOc1ccc(-c2cnc(-c3ccc(C[C@H](NC(=O)c4ccc(C(C)(C)C)cc4)C(=O)NCCC(=O)O)cc3)nc2)cc1 [Compound 456] | 800 to 2500 | –
CCCCCCCOc1ccc(-c2cnc(-c3ccc(C[C@H](NC(=O)c4ccc(C(C)(C)C)s4)C(=O)NC4(C(=O)O)CCCC4)cc3)nc2)cc1 [Compound 395] | 800 to 2500 | –
CC[C@H]1CC[C@H](c2ccc(-c3cnc(-c4ccc(C[C@H](NC(=O)c5ccc(C(C)=O)cc5)C(=O)N5CC(C(=O)O)C5)cc4)nc3)cc2)CC1 [Compound 1162] | 2500 to 5000 | –
CCCCCCCOc1ccc(-c2cnc(-c3ccc(C[C@H](NC(=O)c4ccc(C(C)(C)C)cc4)C(=O)NCCC(=O)O)cc3)nc2)cc1C1CC1 [Compound 704] | 800 to 2500 | –
CC(C)CCCOc1ccc(-c2cnc(-c3ccc(C[C@H](NC(=O)c4ccc(C(C)(C)C)s4)C(=O)N4CC(C(=O)O)C4)cc3)nc2)cc1 [Compound 798, (S)-1-(2-(5-(tert-butyl)thiophene-2-carboxamido)-3-(4-(5-(4-((4-methylpentyl)oxy)phenyl)-pyrimidin-2-yl)phenyl)propanoyl)azetidine-3-carboxylic acid] | 800 to 2500 | –
CCCCCCCOc1ccc(-c2cnc(-c3ccc(C[C@H](NC(=O)c4ccc(C(C)(C)C)s4)C(=O)N4C[C@@H](C#N)C[C@H]4C(=O)O)cc3)nc2)cc1 [Compound 640] | < 800 | –
CC(C)CCCCOc1ccc(-c2cnc(-c3ccc(C[C@H](NC(=O)c4ccc(C(C)(C)C)s4)C(=O)N4CC[C@H](C(=O)O)C4)cc3)nc2)cc1 [Compound 772] | < 800 | –
CCCCCCCOc1ccc(-c2cnc(-c3ccc(C[C@H](NC(=O)c4ccc(N5CCCC5)cc4)C(=O)NCCC(=O)O)cc3)nc2)cc1 [Compound 869] | 2500 to 5000 | –
CCCCCCCOc1ccc(-c2cnc(-c3ccc(CC(NC(=O)c4ccc(C(C)(C)C)s4)C(=O)N[C@@H](CCSC)C(=O)O)cc3)nc2)cc1 (some centres unmarked) [Compound 416] | < 800 | –
CC(C)Oc1ccc(-c2ccc(-c3cnc(-c4ccc(C[C@H](NC(=O)c5ccc(C(C)(C)C)s5)C(=O)N[C@H](C)C(=O)O)cc4)nc3)cc2)cc1 [Compound 1295] | – | 800 to 2500
CCCCCCCOc1ccc(-c2cnc(-c3ccc(C[C@H](NC(=O)c4ccc(C(C)(C)C)s4)C(=O)N4C[C@H](C#N)C[C@H]4C(=O)O)cc3)nc2)cc1 [Compound 641] | < 800 | –
COc1ccc(-c2cnc(-c3ccc(C[C@H](NC(=O)c4ccc(C(C)(C)C)s4)C(=O)N[C@H](C)C(=O)O)cc3)nc2)cc1 [Compound 730] | 2500 to 5000 | –
CC[C@H]1CC[C@H](c2ccc(-c3cnc(-c4ccc(C[C@H](NC(=O)c5ccc(C(C)C)cc5)C(=O)O)cc4)nc3)cc2)CC1 [Compound 1387] | – | < 800
CCCCCCCOc1ccc(-c2cnc(-c3ccc(C[C@H](NC(=O)c4ccc(C(C)(C)C)s4)C(=O)N[C@H](C)C(=O)O)cc3)c(C)c2)cc1 [Compound 812] | 800 to 2500 | –
CCCCCCCOc1ccc(-c2cnc(-c3ccc(C[C@H](NC(=O)c4ccc(C(C)(C)C)s4)C(=O)NC(C(=O)O)C(C)c4ccccc4)cc3)nc2)cc1 (some centres unmarked) [Compound 636] | < 800 | –
CC(C)(C)c1ccc(C(=O)N[C@@H](Cc2ccc(-c3ncc(-c4ccc(C5CCC6(CC5)OCCO6)cc4)cn3)cc2)C(=O)N2CC(C(=O)O)C2)s1 [Compound 1186] | < 800 | –
CCCC(C)CCOc1ccc(-c2cnc(-c3ccc(C[C@H](NC(=O)c4ccc(C(C)(C)C)cc4)C(=O)NCCC(=O)O)cc3)nc2)cc1 (some centres unmarked) [Compound 706] | 800 to 2500 | –
CCC(CC)Oc1ccc(-c2ccc(-c3cnc(-c4ccc(C[C@H](NC(=O)c5ccc(C(C)(C)C)s5)C(=O)N[C@H](C)C(=O)O)cc4)nc3)cc2)cc1 [Compound 1298] | – | < 800
CCCCCCc1noc(-c2cnc(-c3ccc(C[C@H](NC(=O)c4ccc(C(C)(C)C)cc4)C(=O)NCCC(=O)O)cc3)nc2)n1 [Compound 692] | 5000 to 10000 | –
CCCCCCCOc1ccc(-c2cnc(-c3ccc(C[C@H](NC(=O)c4ccc(C(C)(C)C)cc4)C(=O)NC(C(=O)O)c4ccc(C(F)(F)F)cc4)cc3)nc2)cc1 (some centres unmarked) [Compound 453] | 800 to 2500 | –
CCCCCCNc1ccc(-c2cnc(-c3ccc(C[C@H](NC(=O)c4ccc(C(C)(C)C)cc4)C(=O)NCCC(=O)O)cc3)nc2)cc1 [Compound 686] | 2500 to 5000 | –
CCCCCc1noc(-c2cnc(-c3ccc(C[C@H](NC(=O)c4ccc(C(C)(C)C)cc4)C(=O)NCCC(=O)O)cc3)nc2)n1 [Compound 753] | 2500 to 5000 | –
CCCCCCCOc1ccc(-c2cnc(-c3ccc(C[C@H](NC(=O)c4ccc(C(C)(C)C)s4)C(=O)N4CC(C(=O)O)C4)cc3)nc2)nc1 [Compound 1066] | 800 to 2500 | –
CCCCCCCOc1ccc(-c2cnc(-c3ccc(C[C@H](NC(=O)c4ccc(C(C)C)cc4)C(=O)NC(C(=O)O)C(O)c4ccccc4)cc3)nc2)cc1 (some centres unmarked) [Compound 951] | 800 to 2500 | –
CCCCOc1ccc(-c2ccc(-c3cnc(-c4ccc(C[C@H](NC(=O)c5ccc(C(C)(C)C)s5)C(=O)N5CC(C(=O)O)C5)cc4)nc3)c(F)c2)cc1 [Compound 1332] | – | < 800

SMILES | EC50 [1] [nM] | EC50 [2] [nM]
CC(C)(C)c1ccc(C(=O)N[C@@H](Cc2ccc(-c3ncc(-c4ccc(OC(F)(F)F)cc4)cn3)cc2)C(=O)NC(C(=O)O)C(O)c2ccccc2)s1 (some centres unmarked) [Compound 927] | 2500 to 5000 | –
CCC[C@H]1CC[C@H](C2CCN(c3cnc(-c4ccc(C[C@H](NC(=O)c5ccc(C(C)(C)C)s5)C(=O)N[C@@H](CC(=O)O)C(=O)O)cc4)nc3)CC2)CC1 [Compound 1463] | – | < 800
CCCCCCCOc1ccc(-c2cnc(-c3ccc(CC(NC(=O)c4ccc(C(C)(C)C)s4)C(=O)N[C@@H](CSSC[C@H](N)C(=O)O)C(=O)O)cc3)nc2)cc1 (some centres unmarked) [Compound 426] | 800 to 2500 | –
CC(C)(C)c1ccc(-c2cnc(-c3ccc(C[C@H](NC(=O)c4ccc(C(C)(C)C)s4)C(=O)NC(C(=O)O)C(O)c4ccccc4)cc3)nc2)cc1 (some centres unmarked) [Compound 932] | 2500 to 5000 | –
CCCCCCCOc1ccc(-c2cnc(-c3ccc(CC(NC(=O)c4ccc(C(C)(C)C)s4)C(=O)N[C@@H](Cc4ccc(O)cc4)C(=O)O)cc3)nc2)cc1 (some centres unmarked) [Compound 428] | 800 to 2500 | –
CC(C)(C)c1ccc(C(=O)N[C@@H](Cc2ccc(-c3ncc(-c4ccc(-c5ccc(C#N)cc5)cc4F)cn3)cc2)C(=O)N2CC(C(=O)O)C2)s1 [Compound 1201] | < 800 | –
CCCCCCCOc1ccc(-c2cnc(-c3ccc(C[C@H](NC(=O)c4ccc(CCC)s4)C(=O)N[C@H](C)C(=O)O)cc3)nc2)cc1 [Compound 840] | 800 to 2500 | –
CCCCCCCOc1ccc(-c2cnc(-c3ccc(CC(NC(=O)c4ccc(C(C)(C)C)s4)C(=O)NCCCCCC(=O)O)cc3)nc2)cc1 (centres unmarked) [Compound 460] | 5000 to 10000 | –
CCCCc1noc(-c2cnc(-c3ccc(C[C@H](NC(=O)c4ccc(C(C)(C)C)cc4)C(=O)NCCC(=O)O)cc3)nc2)n1 [Compound 743] | 5000 to 10000 | –
CCCCCCCOc1ccc(-c2cnc(-c3ccc(C[C@H](NC(=O)c4ccc(C(C)(C)C)s4)C(=O)N4CC[C@H](C(=O)NS(C)(=O)=O)C4)cc3)nc2)cc1 [Compound 884] | 800 to 2500 | –
CCCCCCCOc1ccc(-c2cnc(-c3ccc(C[C@H](NC(=O)c4ccc(C(C)(C)C)s4)C(=O)N[C@@H](C(=O)O)C(C)c4ccccc4)cc3)nc2)cc1 (some centres unmarked) [Compound 898] | 2500 to 5000 | –
C[C@@H](NC(=O)[C@H](Cc1ccc(-c2ncc(-c3ccc(-c4ccc(F)cc4F)cc3)cn2)cc1)NC(=O)c1ccc(C(C)(C)C)s1)C(=O)O [Compound 1149] | 5000 to 10000 | –
CCCCCCCCc1ccc(-c2cnc(-c3ccc(C[C@H](NC(=O)c4ccc(C(C)(C)C)cc4)C(=O)NCCC(=O)O)cc3)nc2)cc1 [Compound 683] | 800 to 2500 | –
CCCCCCCOc1ccc(-c2cnc(-c3ccc(C[C@H](NC(=O)CN(C)C)C(=O)N[C@H](C)C(=O)O)cc3)nc2)cc1 [Compound 826] | 2500 to 5000 | –
CCCCCCCOc1ccc(-c2cnc(-c3ccc(C[C@H](NC(=O)c4ccc(C5CC5)cc4)C(=O)N[C@H](C)C(=O)O)cc3)nc2)cc1 [Compound 827] | 800 to 2500 | –
CCC[C@H]1CC[C@H](C2CCN(c3cnc(-c4ccc(C[C@H](NC(=O)c5ccc(C(C)(C)C)s5)C(=O)N[C@H](CC(C)C)C(=O)O)cc4)nc3)CC2)CC1 [Compound 1462] | – | 800 to 2500
CCCCCCCOc1ccc(-c2ccc(-c3ccc(C[C@H](NC(=O)c4ccc(C(C)(C)C)cc4)C(=O)O)cc3)nn2)cc1 [Compound 273] | 800 to 2500 | –
C[C@@H](NC(=O)[C@H](Cc1ccc(-c2ncc(-c3ccc(-c4ccc(Cl)cc4)cc3)cn2)cc1)NC(=O)c1ccc(C(C)(C)C)s1)C(=O)O [Compound 1315] | – | < 800
CC(C)(C)c1ccc(C(=O)N[C@@H](Cc2ccc(-c3ncc(-c4ccc(OCC(F)(F)F)cc4)cn3)cc2)C(=O)NCCC(=O)O)cc1 [Compound 682] | 2500 to 5000 | –
CCCCCCCOc1ccc(-c2cnc(-c3ccc(C[C@H](NC(=O)c4ccc(C(C)(C)C)cc4)C(=O)N[C@@H](Cc4ccccn4)C(=O)O)cc3)nc2)cc1 [Compound 542] | < 800 | –
CCCCCC(=O)c1ccc(-c2cnc(-c3ccc(C[C@H](NC(=O)c4ccc(C(C)(C)C)s4)C(=O)N4CC[C@H](C(=O)O)C4)cc3)nc2)cc1 [Compound 766] | 2500 to 5000 | –
CCCCCCCOc1ccc(-c2cnc(-c3ccc(C[C@H](NC(=O)c4ccc(C(C)(C)C)s4)C(=O)N[C@@H](C(=O)O)[C@H](C)CC)cc3)nc2)cc1 [Compound 658] | < 800 | –
CCCCCCCOc1ccc(-c2cnc(-c3ccc(C[C@H](NC(=O)c4ccc(C(C)(C)C)cc4)C(=O)NC(Cc4c[nH]c5ncccc45)C(=O)O)cc3)nc2)cc1 (some centres unmarked) [Compound 584] | 800 to 2500 | –
Cc1cc(-c2cnc(-c3ccc(C[C@H](NC(=O)c4ccc(C(C)(C)C)s4)C(=O)N4CC(C(=O)O)C4)cc3)nc2)ccc1OC(C)C [Compound 1093] | < 800 | –
CC(C)(C)c1ccc(C2CCN(c3cnc(-c4ccc(C[C@H](NC(=O)c5ccc(C(C)(C)C)s5)C(=O)N5CC(C(=O)O)C5)cc4)nc3)CC2)cc1 [Compound 1493] | – | < 800
